Experiment: HILIC, Waters ACQUITY UPLC BEH Amide, 100 × 2.1 mm, 1.7 µm; A: water + 0.125% formic acid + 10 mM ammonium formate; B: 5% water + 95% acetonitrile + 0.125% formic acid + 10 mM ammonium formate; gradient (min/%B) 0/100 2/100 7.7/70 9.5/40 10.25/30 12.75/100 17/100
Conditions: stereoisomer not certain

LC retention time [min]	SMILES
5.18	COc1ccc(CC(C)NCC(O)c2ccc(O)c(NC=O)c2)cc1 (centres undefined) [Formoterol]
1.07	CC(=O)OC1CC(C)(C)C(=C=CC(C)=CC=CC(C)=CC=CC=C(C)C=CC=C(C)C(=O)CC23OC2(C)CC(O)CC3(C)C)C(C)(O)C1 (centres undefined) [Fucoxanthin]
3.45	CCOC(=O)c1ccc(OC(=O)CCCCCN=C(N)N)cc1 [Gabexate]
8.44	NC1C(O)OC(CO)C(O)C1O (centres undefined) [Galactosamine]
4.62	COc1ccc2c3c1OC1CC(O)C=CC31CCN(C)C2 (centres undefined) [Galanthamine]
4.53	COC(=O)C1=COC(OC2OC(CO)C(O)C(O)C2O)C2C(CO)=CCC12 (centres undefined) [Geniposide]
3.18	O=C(O)c1cc(O)ccc1O [Gentisinic acid]
1.3	CC(C)=CCCC(C)=CC(=O)O [Geranic acid]
1.05	CCC1=C(C)CN(C(=O)NCCc2ccc(S(=O)(=O)NC(=O)NC3CCC(C)CC3)cc2)C1=O (centres undefined) [Glimepiride]
9.9	NC(N)=NCCCC(NC(=O)C(N)CCC(=O)O)C(=O)O (centres undefined) [Glu-Arg]
9.6	NC(=O)CCC(NC(=O)C(N)CCC(=O)O)C(=O)O (centres undefined) [Glu-Gln]
9.9	NCCCCC(NC(=O)C(N)CCC(=O)O)C(=O)O (centres undefined) [Glu-Lys]
8.2	NC(CCC(=O)O)C(=O)NC(Cc1ccccc1)C(=O)O (centres undefined) [Glu-Phe]
9.44	CC(O)C(NC(=O)C(N)CCC(=O)O)C(=O)O (centres undefined) [Glu-Thr]
7.66	CC(C)C(NC(=O)C(N)CCC(=O)O)C(=O)NC(Cc1ccccc1)C(=O)O (stereo not drawn) [Glu-Val-Phe]
8.15	O=C1OC(CO)C(O)C(O)C1O (centres undefined) [Gluconolactone]
7.37	CS(=O)CCCCC(=NOS(=O)(=O)O)SC1OC(CO)C(O)C(O)C1O (centres undefined) [Glucoraphanin]
10.1	NC1C(O)OC(COP(=O)(O)O)C(O)C1O (centres undefined) [Glucosamine-6-phosphate]
9.61	O=P(O)(O)OC1OC(CO)C(O)C(O)C1O (centres undefined) [Glucose-1-phosphate]
9.86	O=P(O)(O)OCC1OC(O)C(O)C(O)C1O (centres undefined) [Glucose-6-phosphate]
1.84	OCC1OC(O)C(O)C(O)C1O (centres undefined) [Glucose]
8.85	NC(CCC(=O)O)C(=O)O (centres undefined) [Glutamic acid]

LC retention time [min]	SMILES
10.2	NC(CCC(=O)NC(CSSCC(NC(=O)CCC(N)C(=O)O)C(=O)NCC(=O)O)C(=O)NCC(=O)O)C(=O)O (centres undefined) [Glutathione (oxidized)]
9.07	NC(CCC(=O)NC(CS)C(=O)NCC(=O)O)C(=O)O (centres undefined) [Glutathione (reduced)]
9.18	NCC(=O)NCC(=O)NCC(=O)O [Gly-Gly-Gly]
7.67	CCC(C)C(NC(=O)CN)C(=O)O (centres undefined) [Gly-Ile]
8.62	[NH3+]CC(=O)N1CCCC1C(=O)[O-] (centres undefined) [Gly-Pro]
7.89	CC(NC(=O)C(Cc1ccc(O)cc1)NC(=O)CN)C(=O)O (stereo not drawn) [Gly-Tyr-Ala]
8.07	NCC(=O)NC(Cc1ccc(O)cc1)C(=O)O (centres undefined) [Gly-Tyr]
8.05	CC(C)C(NC(=O)CN)C(=O)O (centres undefined) [Gly-val]
8.67	C[N+](C)(C)CCOP(=O)([O-])OCC(O)CO (centres undefined) [Glycerophosphocholine]
8.33	NCC(=O)O [Glycine]
1.32	COc1cc2c(=O)c(-c3ccc(O)cc3)coc2cc1O [Glycitein]
8.14	CC(C)CC(NC(=O)CN)C(=O)O (centres undefined) [Glycyl-leucine]
7.83	CC(C)CC(NC(=O)C(COC(C)(C)C)NC(=O)C(Cc1ccc(O)cc1)NC(=O)C(CO)NC(=O)C(Cc1c[nH]c2ccccc12)NC(=O)C(Cc1cnc[nH]1)NC(=O)C1CCC(=O)N1)C(=O)NC(CCCN=C(N)N)C(=O)N1CCCC1C(=O)NNC(N)=O (centres undefined) [Goserelin]
4.12	CN1C2CCCC1CC(NC(=O)c1nn(C)c3ccccc13)C2 (centres undefined) [Granisetron]
8.16	NC(N)=NCC(=O)O [Guanidinoacetic acid]
6.4	Nc1nc2nc[nH]c2c(=O)[nH]1 [Guanine]
8.39	Nc1nc2c(ncn2C2OC3COP(=O)(O)OC3C2O)c(=O)[nH]1 (centres undefined) [Guanosine-3',5'-cyclic monophosphate]
7.33	Nc1nc2c(ncn2C2OC(CO)C(O)C2O)c(=O)[nH]1 (centres undefined) [Guanosine]
1.12	CC1CC2C3CC(F)C4=CC(=O)C(Cl)=CC4(C)C3(F)C(O)CC2(C)C1(O)C(=O)CO (centres undefined) [Halometasone]
2.31	O=C(CCCN1CCC(O)(c2ccc(Cl)cc2)CC1)c1ccc(F)cc1 [Haloperidol]
3.01	CCCCCCCCCCCCCCCCC(=O)O [Heptadecanoic acid]
4.89	CCCCCC(=O)O [Hexanoic acid]

LC retention time [min]	SMILES
5.09	CCCCCC(=O)OC(CC(=O)[O-])C[N+](C)(C)C [Hexanoyl-L-carnitine]
5.3	CC(CCCCC(=O)Nc1ccc(C(F)(F)F)cc1)NCCc1cnc[nH]1 (centres undefined) [Histamine-trifluoromethyltoluide]
8.29	NCCc1cnc[nH]1 [Histamine]
9.48	NC(Cc1cnc[nH]1)C(=O)O (centres undefined) [Histidine]
9.34	NC(N)=NCCCCC(N)C(=O)O (centres undefined) [Homoarginine]
9.58	NC(CCS)C(=O)O (centres undefined) [Homocysteine]
9.58	NC(CCSSCCC(N)C(=O)O)C(=O)O (centres undefined) [Homocystine]
3.24	COC(=O)CC(O)(CCCC(C)(C)O)C(=O)OC1C(OC)=CC23CCCN2CCc2cc4c(cc2C13)OCO4 (centres undefined) [Homoharringtonine]
8.29	NC(CCO)C(=O)O (centres undefined) [Homoserine]
5.74	CC=C1C2C=C(C)CC1(N)c1ccc(=O)[nH]c1C2 (centres undefined) [Huperzine]
8.71	O=C(O)CCc1ccccc1 [Hydrocinnamic acid]
2.56	CC12CCC(=O)C=C1CCC1C2C(O)CC2(C)C1CCC2(O)C(=O)CO (centres undefined) [Hydrocortisone]
8.14	O=C(O)C1CC(O)CN1 (centres undefined) [Hydroxyproline]
4.99	O=c1[nH]cnc2nc[nH]c12 [Hypoxanthine]
4.74	COc1ccc(-c2oc3c(CC=C(C)C)c(OC4OC(CO)C(O)C(O)C4O)cc(O)c3c(=O)c2OC2OC(C)C(O)C(O)C2O)cc1 (centres undefined) [Icarin]
5.42	CC(=O)C1(O)Cc2c(O)c3c(c(O)c2C(OC2CC(N)C(O)C(C)O2)C1)C(=O)c1ccccc1C3=O (centres undefined) [Idarubicin]
0.96	COC1=C(OC)C(=O)C(CCCCCCCCCCO)=C(C)C1=O [Idebenone]
3.17	CC(C(O)c1ccc(O)cc1)N1CCC(Cc2ccccc2)CC1 (centres undefined) [Ifenprodil]
5.36	Cc1ccc(NC(=O)c2ccc(CN3CCN(C)CC3)cc2)cc1Nc1nccc(-c2cccnc2)n1 [Imatinib]
4.53	c1c[nH]cn1 [Imidazole]
1.07	O=C1C(c2c(O)[nH]c3ccccc23)=Nc2ccccc21 [Indarubicin]
2.17	CC(C)(C)NC(=O)C1CN(Cc2cccnc2)CCN1CC(O)CC(Cc1ccccc1)C(=O)NC1c2ccccc2CC1O (centres undefined) [Indinavir]

LC retention time [min]	SMILES
1.36	NC(=O)Cc1c[nH]c2ccccc12 [Indole-3-acetamide]
1.24	OCc1c[nH]c2ccccc12 [Indole-3-carbinol]
1.16	O=Cc1c[nH]c2ccccc12 [Indole-3-carboxaldehyde]
1.41	O=C(O)c1c[nH]c2ccccc12 [Indole-3-carboxylic acid]
5.11	O=C(O)C(=O)Cc1c[nH]c2ccccc12 [Indole-3-pyruvic acid]
2.25	O=C(O)C(O)Cc1c[nH]c2ccccc12 (centres undefined) [Indolelactic acid]
1.08	COc1ccc2c(c1)c(CC(=O)O)c(C)n2C(=O)c1ccc(Cl)cc1 [Indomethacin]
6.19	O=c1[nH]cnc2c1ncn2C1OC(CO)C(O)C1O (centres undefined) [Inosine]
3.33	Nc1c2c(nc3c1CCC3)CCCC2 [Ipidacrine]
0.94	CC(C)Oc1ccc2c(=O)c(-c3ccccc3)coc2c1 [Ipriflavone]
1.16	CCCCC1=NC2(CCCC2)C(=O)N1Cc1ccc(-c2ccccc2-c2nn[nH]n2)cc1 [Irbesartan]
5.03	CCc1c2c(nc3ccc(OC(=O)N4CCC(N5CCCCC5)CC4)cc13)-c1cc3c(c(=O)n1C2)COC(=O)C3(O)CC (centres undefined) [Irinotecan]
1.25	Nc1nc(N)nc(-c2cc(Cl)ccc2Cl)n1 [Irsogladine]
5.04	CC(C)CN [Isobutylamine]
1.77	CC(C)C(=O)O [Isobutyric acid]
7.18	CCC(C)C(N)C(=O)O (centres undefined) [Isoleucine]
7.19	OCC1OC(OCC2OC(O)C(O)C(O)C2O)C(O)C(O)C1O (centres undefined) [Isomaltose]
1.81	CC(C)=CCNc1ncnc2nc[nH]c12 [Isopentenyladenine]
6.02	COc1cc(-c2oc3cc(O)cc(O)c3c(=O)c2OC2OC(COC3OC(C)C(O)C(O)C3O)C(O)C(O)C2O)ccc1O (centres undefined) [Isorhamnetin-3-O-rutinoside]

SMILES	LC retention time [min]
COc1ccc(CCN)cc1OC [Homoveratrylamine]	4.78
COc1ccc2c3c1OC1C(=O)CCC4C(C2)N(C)CCC314 (centres undefined) [Hydrocodone]	3.8
CN1CCC23c4c5ccc(O)c4OC2C(=O)CCC3C1C5 (centres undefined) [Hydromorphone]	5.22
CNC1CC(c2ccc(Cl)c(Cl)c2)c2ccccc21 (centres undefined) [Indatraline]	2.88
